Legend:
[1] = tested on: Plasmodium yoelii NS (chloroquine-resistant strain); assay: Oral administration test of polysaccharide fraction in combination with antimalarial agent in rodent malaria parasite (chloroquine-resistant strain) infection model; format: in vivo, Plasmodium yoelii NS in ICR mice; conditions: 2×10^4 infected erythrocytes; AN 3 mg/kg/day oral four times; SCE-4 600 mg/kg/day oral from 7 days before infection; versus control group (Dunnett's test)
Procedure: A procedure was performed in the same manner as in Example 4, except that the number of P. yoelii NS-infected erythrocytes intravenously injected to the tail vein was changed from 2×10^6 cells to 2×10^4 cells.
SCE-4 and AN were orally administered to ICR mice each day in a dose of 500 μL/mouse using a feeding needle. A dosage of SCE-4 was 600 mg/kg/day, and AN was dissolved in a 10% dimethylsulfoxide (DMSO) aqueous solution containing 0.5% Tween 80 and administered in a dosage of 3 mg/kg/day. The administration of SCE-4 was started 7 days before parasite infection and continued even after the plasmodium infection. The administration of AN was started 2 hours after the parasite infection and continued until Day 3 after the plasmodium infection (four times in total). In addition, SCE-4 was administered 3 hours or more after the administration of AN.
To a control group, water and a 10% DMSO aqueous solution containing 0.5% Tween 80 were orally administered, and to AN3 groups, water and a 10% DMSO aqueous solution of AN containing 0.5% Tween 80 were orally administered, and to SCE-4+AN3 groups, an SCE-4 aqueous solution and a 10% DMSO aqueous solution of AN containing 0.5% Tween 80 were orally administered.
Calculation was performed in the same manner as in Example 3.

[2] = tested on: IL-6 production in mouse Peyer's patch cells; assay: IL-6 production induction test in Peyer's patch cell culture (ELISA); format: cell-based, C3H/HeJ mouse; conditions: Example 2, FIG. 4; sample untreated, versus control
Procedure: To a 25 mM acetate buffer (pH 4.5, 1 mg/mL) solution of the α-glucan fraction (1.5 mg) or the heteroglycan fraction (1.5 mg) were added exo-α-L-arabinofuranosidase (20 μL), exo-β-D-(1→3)-galactanase (20 μL), and endo-β-D-(1→4)-galactanase (5 μL), followed by enzyme reaction under conditions of 37° C. for 2 days. The obtained digest was heat-treated for 30 seconds in a boiling water bath to deactivate the enzyme. To a half of this enzyme reaction liquid (shown as “1,3/1,4-galactanase” in FIG. 4) was further added dextranase (0.25 units), followed by incubation for 2 days at 37° C., and subsequently, the enzyme was deactivated under the same conditions as the above to obtain an enzyme reaction liquid (shown as “dextranase” in FIG. 4). These reaction liquids were preserved at −20° C. until use. Preparation and culture of mouse Peyer's patch cells were performed in the same manner as in Test Example 1. An anti-mouse IL-6 primary antibody diluted to 1 μg/mL with a 50 mM carbonate-bicarbonate buffer (pH 9.6) (100 μL/well) was dispensed into an ELISA plate (Immuno-Maxisorp, Nunc) and incubated at 4° C. overnight. […] The developed yellow color was measured using a microplate reader (Multiskan JX, Thermo Electron Corp.) (measurement wavelength; 405 nm, blank wavelength; 492 nm).

Row | Compound | infection rate of erythrocytes (Parasitemia), Day 4 and Day 5 [1] | amount of IL-6 production [2]
1 | C[C@H]1[C@H](OC(=O)CCC(=O)O)O[C@@H]2O[C@@]3(C)CC[C@H]4[C@H](C)CC[C@@H]1[C@@]24OO3 [AN, artesunate] | the infection rate significantly decreased on Day 4 and Day 5 as compared with the control group | 
2 | dextran |  | no change in the amount of IL-6 production was observed

— patent US9737558B2, “Peyer's patch activator” (priority 2012, dated 2017)
